# Experimental data reported in patent US20220054494A1, “METHODS FOR TREATING BLADDER AND URETHRA DYSFUNCTION AND DISEASE” (University of Pittsburgh - Of the Commonwealth System of …, priority 2019, published 2022).
# “Also recorded” adds a separate entry of the source.
# How the values were obtained:
# bladder smooth muscle = test: Transmission electron microscopy of bladder smooth muscle; type: in vivo, rat
# Text: Transmission electron microscopy (TEM): The other half of each urinary bladder from each group (young, aged, and aged+treatment) were fixed in cold 2.5% glutaraldehyde in 0.01 M PBS. The specimens were rinsed in PBS, post-fixed in 1% osmium tetroxide with 1% potassium ferricyanide, rinsed in PBS, dehydrated through a graded series of ethanol and propylene oxide, and embedded in POLY/BED® 812 (Luft formulations). Semi-thin (300 nm) sections were cut on a LEICA® Reichart Ultracut, stained with 0.5% toluidine blue in 1% sodium borate and examined under the light microscope. Ultrathin sections (65 nm) were stained with uranyl acetate and Reynold's lead citrate and examined on JEOL 1400 transmission electron microscope with a side mount AMT 2k digital camera (Advanced Microscopy Techniques, Danvers, Mass.).
# (§1) Transmission electron microscopy (TEM): The other half of each urinary bladder, proximal urethra, or external urethral sphincter from each group (young, aged, aged+8-AG treatment) was fixed in cold 2.5% glutaraldehyde in 0.01 M PBS. The specimens were rinsed in PBS, post-fixed in 1% osmium tetroxide with 1% potassium ferricyanide, rinsed in PBS, dehydrated through a graded series of ethanol and propylene oxide solutions, and embedded in POLY/BED® 812 (Luft formulations). Semi-thin (300 nm) sections were cut on a LEICA® Reichart Ultracut, stained with 0.5% Toluidine Blue in 1% sodium borate and examined under the light microscope. Ultrathin sections (65 nm) were stained with uranyl acetate as well as Reynold's lead citrate and examined on a JEOL 1400 transmission electron microscope with a side mount AMT 2k digital camera (Advanced Microscopy Techniques, Danvers, Mass.).
# as §1, with “Half” for “The other half”, “bladder” for “bladder, proximal urethra, or external urethral sphincter”, “borate,” for “borate”, “and” for “as well as”
# cleaved PARP = test: Western immunoblotting, cleaved PARP; type: in vivo, rat; details: aged rats; oral 8-AG 5 mg/kg/day, 6 weeks
# Experimental: (§2) Western immunoblotting: One half of each bladder preparation was homogenized using Lysing Matrix D in a FastPrep 24 instrument (MP Biomedicals, Solon, Ohio) in HBSS (5 mM KCl, 0.3 mM KH2PO4, 138 mM NaCl, 4 mM NaHO3, 0.3 mM Na2HCO3, 0.3 mM Na2HPO4, 5.6 mM glucose and 10 mM Hepes, pH 7.4) containing complete protease inhibitor cocktail (1 tablet/10 ml, ROCHE®, Indianapolis, Ind.)) and phosphatase inhibitor cocktail (SIGMA®, 1:100). After centrifugation (13000 rpm; 15 min at 4° C.), the membrane protein fraction was prepared by suspending the membrane pellets in lysis buffer containing 0.3 M NaCl, 50 mM Tris-HCl (pH 7.6) and 0.5% Triton X-100 and the same concentration of protease inhibitors as above. The suspensions were incubated on ice and centrifuged (13000 rpm; 15 min at 4° C.). The protein concentrations of the combined supernatants were determined using the PIERCE® BCA protein assay (THERMO SCIENTIFIC®, Rockford, Ill.). After denaturation (100° C. for 5 min) in the presence of Laemmli sample buffer, lysate from each sample was separated on a 4-15% TGX Stain-Free SDS-PAGE gel (BIO-RAD® Laboratories, Hercules, Calif.). As a loading control, total protein per sample was determined using Bio-Rad® Stain Free SDS-PAGE gel technology. UV-activated protein fluorescence was imaged on a CHEMIDOC® MP (BIO-RAD®). […] The volume (intensity) of each protein species was determined and normalized to total protein using Image Lab software (BIO-RAD®).
# cleaved caspase 3 = test: Western immunoblotting, cleaved caspase 3; type: in vivo, rat; details: aged rats; oral 8-AG 5 mg/kg/day, 6 weeks
# Experimental: as §2
# [1] = system: deoxycorticosterone/salt-induced hypertension; details: chronic oral treatment of rats; Jackson et al. 2016; cited from earlier work
# [2] = system: urethral smooth muscle and external urethral sphincter (striated muscle); test: Transmission electron microscopy of urethral smooth muscle and external urethral sphincter; type: in vivo, rat; details: aged rats; oral 8-AG 5 mg/kg/day, 6 weeks
# Text: Damage to the muscles or lack of hormonal stimulation are major contributing factors to urinary incontinence, which can lead to impaired bladder, emptying, urgency, and incontinence. The methods and materials used (such as for western immunoblotting and transmission electron microscopy) are the same as Example 1 with the tissues utilized for examination of muscle and mitochondrial morphology being the proximal urethral sphincter muscle and striated muscle of the external sphincter.
# as §1
# [3] = aged Fisher 344 rats, 8-AG 5 mg kg/day via drinking water, 1 month
# [4] = aged rats, oral 8-AG 5 mg/kg/day, 6 weeks
smiles,measurement,setting,value
"Nc1nc2[nH]c(N)nc2c(=O)[nH]1 [8-AG, 8-Aminoguanine]",detrusor smooth muscle morphology (separation and degeneration of cells),bladder smooth muscle; [3],restored to a younger state; also recorded: restored to levels similar to the younger state
same,swelling and disruption of smooth muscle mitochondria,bladder smooth muscle; [3],restored to a younger state; also recorded: restored to levels similar to the younger state
same,bladder smooth muscle mitochondrial abnormalities,"bladder smooth muscle; aged rats, intravesical 100 μM 8-AG plus 10 μM DEA-NONOate, daily infusion 3-6 weeks",normalized; also recorded: restored
same,detrusor smooth muscle morphology (structural anomalies),bladder smooth muscle; [4],reversed; also recorded: restored to a younger state
same,swelling and disruption of smooth muscle mitochondria,bladder smooth muscle; [4],reversed; also recorded: restored to a younger state
same,EUS cleaved PARP,cleaved PARP,restored to a younger state
same,cleaved PARP in detrusor smooth muscle,cleaved PARP,levels similar to the younger state; also recorded: restored these biomarkers to that of a younger state
same,urethral cleaved PARP,cleaved PARP,normalized to a younger state
same,EUS cleaved caspase 3,cleaved caspase 3,restored to a younger state
same,cleaved caspase 3 in bladder mucosa,cleaved caspase 3,reversed or restored to levels similar to the younger state; also recorded: restored changes similar to a younger state
same,cleaved caspase 3 in detrusor smooth muscle,cleaved caspase 3,levels similar to the younger state; also recorded: restored these biomarkers to that of a younger state
same,development of deoxycorticosterone/salt-induced hypertension,[1],attenuate
same,external urethral sphincter (striated muscle) and mitochondrial morphology,[2],restored to a younger state; also recorded: reversed to a younger state
same,urethral smooth muscle and mitochondrial morphology,[2],restored to a younger state; also recorded: reversed to a younger state
